Data reported in US20260284115A1, “THERAPEUTICS AND METHODS” (CAMBRIDGE ENTERPRISE LIMITED, priority 2022, published 2026).

Tested on: NALCN
Experiment: Circulating ZsGreen+ cells (CZCs) in peripheral blood of non-tumour-bearing mice after NALCN blockade
Type: in vivo
Conditions: Prom1^CreERT2/Lacz; Rosa26^ZSG; Nalcn^+/+ mice without oncogenic alleles, n=10; FIG. 1a
Experimental: Peripheral blood (500 μl-1 ml) was harvested from mice at autopsy into 10 μl of 0.5M EDTA, diluted in PBS and assessed by MACSQuant Analyzer (Miltenyi Biotech Inc.) for ZSgreen expression (525/50 nm [FITC] vs 614/50 nm [PI]). Cells for single cell RNA sequencing and tail vein injection were sorted using a BD FACSAria II Cell Sorter (BD Biosciences) excitation at 525/50 nm (FITC) vs 614/50 nm (PI). Non-tamoxifen induced mouse peripheral blood served as a negative control to set gate parameters. Twenty-five thousand ZSG^+ cells were sorted and injected into recipient NOD SCID gamma mice (Charles River) and aged. For serial dilution assessment of tCZC metastasis initiation, tCZCs were isolated from donor tumour-bearing via FACS based on ZSGreen expression and placed into culture medium. Culture medium: Advanced DMEM/F12 (31330038, ThermoFisher), 2 mM L-glutamine (25030024, ThermoFisher), B27 (12587010, ThermoFisher), N2 (A1370701, ThermoFisher), containing growth factors (50 ng/ml EGF [Peprotech], 100 ng/ml bFGF [100-18c, Peprotech] and 1% FBS (10500064, ThermoFisher). Cells were grown at 37° C. in 5% CO2. Recipient NOD SCID gamma mice (Charles River) were injected with either 10, 100, 1,000 or 10,000 tCZC cells via tail-vein injection and aged. Full autopsy and tissue harvesting were performed as described above.

[Cl][Gd]([Cl])[Cl] [Gadolinium chloride]
numbers of CZCs (circulating ZSG+ cells) in peripheral blood; stem cell-like cell shedding: significantly increased
